Several values for one entry are separate records, joined by “and”; a condition that tells them apart may be missing. Identical values can stand only once.
Biological target: hCB1 (Homo sapiens, UniProt P21554)
Assay: bioSensAll ebBRET signaling profiling, hCB1
Type: cell-based
Set-up: host or cells: HEK293SL cells, transient PEI transfection
Conditions: for Gi1 hCB1 response: Gi1 biosensor; for Gi1 hCB1 / GoB hCB1: single replicate values, FigS6a

Sequence of hCB1 (P21554 whole entry): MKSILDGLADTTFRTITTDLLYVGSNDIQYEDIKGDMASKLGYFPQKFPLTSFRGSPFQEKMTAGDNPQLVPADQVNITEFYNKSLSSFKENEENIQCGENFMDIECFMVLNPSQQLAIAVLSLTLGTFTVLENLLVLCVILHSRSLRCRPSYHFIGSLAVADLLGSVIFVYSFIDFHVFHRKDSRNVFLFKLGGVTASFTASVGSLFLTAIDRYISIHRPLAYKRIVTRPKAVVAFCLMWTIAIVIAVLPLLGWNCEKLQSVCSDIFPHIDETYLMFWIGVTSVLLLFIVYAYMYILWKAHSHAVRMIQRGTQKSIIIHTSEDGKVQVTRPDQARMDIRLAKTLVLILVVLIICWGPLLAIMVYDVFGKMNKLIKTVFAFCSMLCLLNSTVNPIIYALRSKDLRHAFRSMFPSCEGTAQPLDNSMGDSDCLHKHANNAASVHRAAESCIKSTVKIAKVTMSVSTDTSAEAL

COC(=O)[C@@H]1[C@@H]2CCC[C@@H]2CN1C(=O)c1cc(C)n(-c2cccc(C(F)(F)F)c2)n1 [‘6439]
Gi1 hCB1 response (Log [Compound] (M) -4.22186): 151.018 | Gi1 hCB1 response (Log [Compound] (M) -4.63927): 115.678 | Gi1 hCB1 response (Log [Compound] (M) -5.05788): 127.496 | Gi1 hCB1 response (Log [Compound] (M) -5.47381): 106.412 | Gi1 hCB1 response (Log [Compound] (M) -5.89285): 85.038 | Gi1 hCB1 response (Log [Compound] (M) -6.31878): 82.8446 | Gi1 hCB1 response (Log [Compound] (M) -6.72585): 60.217 | Gi1 hCB1 response (Log [Compound] (M) -7.14267): 58.225 | Gi1 hCB1 response (Log [Compound] (M) -7.55284): 19.617 | Gi1 hCB1 response (Log [Compound] (M) -8): 16.8865 | Gi1 hCB1 response (Log [Compound] (M) -8.22186): 14.8945 | Gi1 hCB1 response (Log [Compound] (M) -8.39794): 2.361 | Gi1 hCB1 response (Log [Compound] (M) -8.68787): 6.703 | Gi1 hCB1 response (Log [Compound] (M) -9.15521): 0.8614 | Gi1 hCB1 response (Log [Compound] (M) -9.61989): -7.912 | Gi1 hCB1 response (Log [Compound] (M) -10.0969): -33.897 | Gi1 hCB1 response (Log [Compound] (M) -10.5529): -6.905 | Gi1 hCB1 response (Log [Compound] (M) -11.0177): 0.7271 | Gi1 hCB1 response (Log [Compound] (M) -11.4949): -12.7913 | Gi1 hCB1 response (Log [Compound] (M) -11.9208): -11.6498 | Gi1 hCB1 response (Log [Compound] (M) -12.3979): -8.158 | Gi1 hCB1 response (Log [Compound] (M) -12.8861): -13.8656 | Gi1 hCB1 response (Log [Compound] (M) -13, individual replicate values): 6.815 and -3.369 | Gi1 hCB1 (Log [Compound] (M) -4.22186): 102.871 | GoB hCB1 (Log [Compound] (M) -4.22186): 99.959 | Gi1 hCB1 (Log [Compound] (M) -4.63927): 91.1085 | GoB hCB1 (Log [Compound] (M) -4.63927): 101.488 | Gi1 hCB1 (Log [Compound] (M) -5.05788): 91.2935 | GoB hCB1 (Log [Compound] (M) -5.05788): 96.0026 | Gi1 hCB1 (Log [Compound] (M) -5.47381): 93.4364 | GoB hCB1 (Log [Compound] (M) -5.47381): 100.139 | Gi1 hCB1 (Log [Compound] (M) -5.89285): 89.3202 | GoB hCB1 (Log [Compound] (M) -5.89285): 94.2762 | Gi1 hCB1 (Log [Compound] (M) -6.31878): 88.4414 | GoB hCB1 (Log [Compound] (M) -6.31878): 89.4207 | Gi1 hCB1 (Log [Compound] (M) -6.72585): 73.3178 | GoB hCB1 (Log [Compound] (M) -6.72585): 75.088 | Gi1 hCB1 (Log [Compound] (M) -7.14267): 49.9 | GoB hCB1 (Log [Compound] (M) -7.14267): 54.2273 | Gi1 hCB1 (Log [Compound] (M) -7.55284): 26.2355 | GoB hCB1 (Log [Compound] (M) -7.55284): 30.9029 | Gi1 hCB1 (Log [Compound] (M) -8): 8.645 | GoB hCB1 (Log [Compound] (M) -8): 13.9266 | Gi1 hCB1 (Log [Compound] (M) -8.22186): 5.331 | GoB hCB1 (Log [Compound] (M) -8.22186): 0.7628 | Gi1 hCB1 (Log [Compound] (M) -8.39794): 4.128 | GoB hCB1 (Log [Compound] (M) -8.39794): 8.262 | Gi1 hCB1 (Log [Compound] (M) -8.68787): 4.853 | GoB hCB1 (Log [Compound] (M) -8.68787): -0.2442 | Gi1 hCB1 (Log [Compound] (M) -9.15521): 1.029 | GoB hCB1 (Log [Compound] (M) -9.15521): -1.989 | Gi1 hCB1 (Log [Compound] (M) -9.61989): 0.2894 | GoB hCB1 (Log [Compound] (M) -9.61989): -0.46 | Gi1 hCB1 (Log [Compound] (M) -10.0969): -1.6068 | GoB hCB1 (Log [Compound] (M) -10.0969): -4.219 | Gi1 hCB1 (Log [Compound] (M) -10.5529): 0.5669 | GoB hCB1 (Log [Compound] (M) -10.5529): -0.6758

From PMC11882969 (Nature Communications, 2025)
